Tests used:
in vivo [1] = conditions: CD-1, mouse, plasma, sc
Experimental: (§1) First reader's note: The heading '1 mg/kg SC mouse' is printed over the plot above the table and gives dose, route and species for the pharmacokinetic parameters.

[2] = Phase 1 first-in-human SAD/MAD study: pharmacokinetics; type: in vivo; conditions: for Tmax: median Tmax
From the text: This was a randomized, double-blind, placebo-controlled, dose escalation first-in-human (FIH) conducted from December 2018 to January 2020 at a study center in Victoria, Australia in accordance with principles of the Declaration of Helsinki (Ethical Principles for Medical Research Involving Human Subjects), and the NHMRC National Statement on Ethical Conduct in Human Research 2007 (updated 2018). (Registered on the Australian New Zealand Clinical Trials Registry [ANZCTR] under the identifier: ACTRN12618001988246).
Daily doses were given on Day 2 to Day 14. Cohort M1 was dosed with the highest dose level, determined based on the safety and PK data from the preceding Part 1 (SAD), and doses were decreased sequentially for Cohorts M2 and M3 (FIG. 46B).
Characterization of PK profile: PK parameters included maximum concentration (Cmax), time to maximum concentration (Tmax), area under the plasma concentration-time curve (AUC). Blood samples were collected within two hours prior to dosing for pre-dose samples and within ±10 minutes of the nominal/planned time post-dose. For Part 1 (SAD) participants, samples were taken at −2 to 0 hr (pre-dose), 1, 2, 3, 4, 6, 8, 12, 16, 20 hr (Day 1), 24, 30, 36 hr (Day 2), 48 hr (Day 3) and on Day 8 (±1 day, follow-up) post-dose. For Part 2 (MAD) participants, collection occurred −2 to 0 hr (pre-dose), 2, 3, 4, 6, 8, 12 hr (Day 1), 24 hr (Day 2), 48, 60 hr (Day 3), 72 hr (Day 4), 96 hr (Day 5). For Days 7, 8, 11 and 14, samples were taken −2 to 0 hr (pre-dose), 12 hr on Day 7, 2, 4, 6, 8, 12 hr on Day 14, 24, 36 hr on Day 15, 48 hr on Day 16 and on Day 21 (+1 day, follow-up) post-dose.
Estimates for PK parameters are tabulated and summarized by descriptive statistics (mean, standard deviation [SD], median, minimum, and maximum, coefficient of variation [CV %], geometric mean and geometric CV %). Dose proportionality was analyzed using the power model with log-transformed PK parameter values and log-transformed dose. The power model was used to estimate the slope parameter and the 90% confidence intervals (CIs) for the slope. Dose proportionality was generally concluded if the 90% CIs around the slope estimate include the value of 1.

human GLP-1R = human GLP-1R (Homo sapiens, UniProt P43220); experiment: cAMP accumulation, SNAP-human GLP-1R CHO-K1 cells
in vivo [3] = conditions: male, CD-1, mouse, sc
Experimental: Blood was kept on ice until centrifuged at 4600 rpm for five minutes at 4° C. Plasma was stored at −80° C. until analysis. Compounds were extracted from plasma and quantified against a standard curve using an AB Sciex 7500+LC-MS/MS system (FIG. 5).

Chain of human GLP-1R (P43220 24-463): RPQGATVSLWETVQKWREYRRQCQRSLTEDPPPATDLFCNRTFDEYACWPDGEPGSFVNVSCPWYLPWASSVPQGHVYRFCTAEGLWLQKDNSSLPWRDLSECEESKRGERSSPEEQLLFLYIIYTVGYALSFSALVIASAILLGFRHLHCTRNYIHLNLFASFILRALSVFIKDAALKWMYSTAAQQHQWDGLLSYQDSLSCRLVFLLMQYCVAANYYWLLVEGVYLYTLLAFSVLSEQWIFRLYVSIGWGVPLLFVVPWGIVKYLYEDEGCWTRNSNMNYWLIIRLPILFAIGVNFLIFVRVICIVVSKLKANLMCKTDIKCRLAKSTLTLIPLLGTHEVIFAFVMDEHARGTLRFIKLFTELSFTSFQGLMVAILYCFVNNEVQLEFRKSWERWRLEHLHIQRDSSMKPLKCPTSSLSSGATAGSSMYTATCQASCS
Experimental for 1 mg/kg SC mouse: as §1

With `CCCCCCCCCCCCCCCC(=O)N[C@@H](CCC(=O)NCCCC[C@H](NC(=O)[C@H](CO)NC(=O)[C@@H]1CCCN1C(=O)[C@@H]1CCCN1C(=O)[C@@H]1CCCN1C(=O)[C@H](C)NC(=O)CNC(=O)[C@H](CO)NC(=O)[C@H](CO)NC(=O)[C@@H]1CCCN1C(=O)CNC(=O)CNC(=O)[C@H](C)NC(=O)[C@H](CC(C)C)NC(=O)[C@H](CC(C)C)NC(=O)[C@H](Cc1c[nH]c2ccccc12)NC(=O)[C@H](CC(N)=O)NC(=O)[C@@H](NC(=O)[C@H](Cc1ccccc1)NC(=O)[C@H](CCC(=O)O)NC(=O)C(C)(C)NC(=O)[C@H](C)NC(=O)[C@H](C)NC(=O)[C@H](CCC(N)=O)NC(=O)[C@H](CCCCN)NC(=O)[C@H](CC(=O)O)NC(=O)[C@H](CC(C)C)NC(=O)[C@H](Cc1ccc(O)cc1)NC(=O)[C@@H](NC(=O)[C@H](CO)NC(=O)[C@H](Cc1ccc(O)cc1)NC(=O)[C@H](CC(=O)O)NC(=O)[C@H](CO)NC(=O)[C@@H](NC(=O)[C@H](Cc1ccccc1)NC(=O)[C@@H](NC(=O)CNC(=O)[C@H](CCC(=O)O)NC(=O)CSCC(=O)NCCN1C(=O)CSC1=O)[C@@H](C)O)[C@@H](C)O)[C@@H](C)CC)C(C)C)C(N)=O)C(=O)O` [CT-859] the Cmax (in vivo [1]) was 324 nM, the half-life (in vivo [1]) was 8.72 h and the “AUClast” value (1 mg/kg SC mouse) was 3.579 µM·h. For the same molecule, the “Tmax” value (1 mg/kg SC mouse) was 4.0 h.
In the case of `CCCCCCCCCCCCCCCC(=O)N[C@@H](CCC(=O)NCCCC[C@H](NC(=O)[C@H](CO)NC(=O)[C@@H]1CCCN1C(=O)[C@@H]1CCCN1C(=O)[C@@H]1CCCN1C(=O)[C@H](C)NC(=O)CNC(=O)[C@H](CO)NC(=O)[C@H](CO)NC(=O)[C@@H]1CCCN1C(=O)CNC(=O)CNC(=O)[C@H](C)NC(=O)[C@H](CC(C)C)NC(=O)[C@H](CC(C)C)NC(=O)[C@H](Cc1c[nH]c2ccccc12)NC(=O)[C@H](CC(N)=O)NC(=O)[C@@H](NC(=O)[C@H](Cc1ccccc1)NC(=O)[C@H](CCC(=O)O)NC(=O)C(C)(C)NC(=O)[C@H](C)NC(=O)[C@H](C)NC(=O)[C@H](CCC(N)=O)NC(=O)[C@H](CCCCN)NC(=O)[C@H](CC(=O)O)NC(=O)[C@H](CC(C)C)NC(=O)[C@H](Cc1ccc(O)cc1)NC(=O)[C@@H](NC(=O)[C@H](CO)NC(=O)[C@H](Cc1ccc(O)cc1)NC(=O)[C@H](CC(=O)O)NC(=O)[C@H](CO)NC(=O)[C@@H](NC(=O)[C@H](Cc1ccccc1)NC(=O)[C@@H](NC(=O)CNC(=O)[C@H](CCC(=O)O)NC(=O)CSCC(=O)NCCN1CCCCC1=O)[C@@H](C)O)[C@@H](C)O)[C@@H](C)CC)C(C)C)C(N)=O)C(=O)O` [CT-868], the “plasma concentrations after 14 days of dosing vs dose (in words)” value ([2]; MAD 0.75-5.0 mg) is reported as “dose-related but not dose-proportional”, the “plasma concentrations over repeated daily dosing (in words)” value ([2]; MAD 0.75-5.0 mg) is reported as “reached a plateau after a few days of dosing” and the Tmax ([2]; human, in vivo, 0.5 mg) is reported as 3 h. For the same molecule, the AUC0-t ([2]; human, in vivo, 1.5 mg) was 154.2 [45.7%] h*ng/ml, the AUC(0-inf) ([2]; human, in vivo, 1.5 mg) was 184.9 [47.6%] h*ng/ml and the “Cmax, geometric mean (% CV)” value ([2]; human, in vivo, 1.5 mg) was 5.62 [28.1%] ng/ml. The half-life ([2]; human, in vivo, 1.5 mg) was 77.3 h, the “median Tmax” value ([2]; human, in vivo, 1.5 mg) was 8.0 h and the AUC(0-inf) ([2]; human, in vivo, 1.5 mg, AUC0-inf) was 209 ng·h/mL. For the same molecule, the AUC0-t ([2]; human, in vivo, 1.5 mg, AUC0-t) was 167 ng·h/mL, the Cmax ([2]; human, in vivo, 1.5 mg, Cmax, geometric mean (% CV)) was 7.79 ng/mL and the Tmax ([2]; human, in vivo, 1.5 mg) was 6 h. The Tmax ([2]; human, in vivo, 7.5 mg) was 20 h, the half-life ([2]; human, in vivo, 11 mg) was 19.7 h and the Tmax ([2]; human, in vivo, predominant range) was 3 to 12 h. For the same molecule, the “mean Cmax vs dose (in words)” value ([2]; in vivo) was “increased with increasing dose level”, the “time to maximum plasma concentrations after the first dose” value ([2]; in vivo) was 48 to 96 h and the Emax (human GLP-1R; CHO-K1, read-out: hGLP-1R cAMP (-alb) % Emax) was 92%. For the same molecule, the EC50 (human GLP-1R; potency activating cAMP at human GLP-1R, value of b126) was about 0.17 nM, the AUC(0-inf) (in vivo [3]) was 7.92 µM·h and the half-life (in vivo [3]) was 7 h.

Source: patent US20240366728A1, “Treatment of Diabetes Mellitus” (Carmot Therapeutics Inc., priority 2023, published 2024)
